Measurements as given in patent US20260335323A1, “CHIMERIC MOLECULE” (UCL Business Ltd, priority 2023, published 2026).

How the values were obtained:
Format in all cases: cell-based, mouse
[1] = tested on: Mfn2; assay: Western blot, Mfn2 degradation in MEF WT; conditions: MEF WT
Protocol: (§1) FIG. 6. ULKTACs rely on ULK1 for the redirection of autophagy components to mitochondria and subsequent mitophagic degradation (A) Western blot of mouse embryonic fibroblasts (MEF) WT and MEF ULK1/2^−/− treated with 1 mM ULKTACs, 5 mM CCCP or both and probed for ULK1, Mfn2 and Actin—quantification of the relative intensity of Mfn2 shown in (B), normalised to Actin. Representative immunofluorescence of MEF WT (C) and MEF ULK1/2^−/− (D) treated with 5 mM CCCP, 1 mM ULKTACs or both and immunostained for Alexa 488 ATP5a and Alexa 647 LC3B. Quantification of the colocalised LC3 to ATP5a spot area shown in WT vs ULK1/2^−/− treated MEF cells shown in (E). Data shown are mean±SEM, n=3, *p<0.05, ** p<0.01, *** p<0.001, Two-way ANOVA with Tukey's multiple comparisons test.
Cells were homogenised in protein lysis buffer consisting of 0.1 M Tris pH 8.0, 0.1 M NaCl, 5% glycerol, IGEPAL® CA-630 (#18896. Sigma-Aldrich) and 5 mM EDTA, 0.1 M N-ethyl maleimide (ThermoFisher, #23030) and protease inhibitor (Cell Signalling Technologies, #5871). Protein concentrations were determined using the BCA assay to ensure equal loading. […] The membranes were immunoblotted with primary antibodies, overnight at 4° C. ULK1 (D8H5) Rabbit mAb (#0854) [1:1000], Phospho-ULK1 (Ser 317) Rabbit antibody (#37762) [1:1000], LC3B Rabbit antibody (#2775) [1:1000], TOM20 (D8T4N) Rabbit mAb (#42406) [1:1000] and, Phospho-Ubiquitin (Ser 65) (E2J6T) Rabbit mAb (#62082) [1:500] were obtained from Cell Signalling Technologies. Recombinant Anti-Vinculin Rabbit antibody (EPR8185) (#ab129002) [1:5000] and Anti-Mitofusin2 mouse antibody (6A8) (#ab56889) [1:1000] were purchased from Abcam. Anti-Actin mouse monoclonal antibody (#A1978) [1:1000] and Anti-rabbit p62/SQSTM1 (#P0067) [1:1000], were purchased from Sigma-Aldrich. Mono- and polyubiquitinylated conjugates monoclonal antibody (FK2) (BML-PW8810-0100) [1:500] was purchased from Enzo Life Sciences. Anti BRD4 (E2A7X) rabbit monoclonal antibody (#13440), Anti c-MYC (D84C12) rabbit monoclonal antibody (#5605) [1:1000], Anti GAPDH (D4C6R) mouse monoclonal antibody (#97166) [1:1000], Anti Max (S20) rabbit monoclonal antibody (#4739) [1:1000] were purchased from Cell Signalling Technologies. Anti Phospho-CHK1 (Ser 345) rabbit monoclonal antibody (#2341) [1:1000], Anti gamma-H2AX (Ser 139) rabbit monoclonal antibody (#2577) [1:1000] were obtained from Cell Signalling Technologies, Anti RPA32/RPA2 (phospho S4/S8) rabbit monoclonal antibody (ab87277) [1:1000] were obtained from Abcam.
Membranes were then incubated with horseradish peroxidase (HRP)-conjugated secondary antibodies (Rabbit #7074 and Mouse #7076) purchased from Cell Signalling Technologies for 1 hour and the HRP signal was detected using EZ-ECL Enhanced Chemiluminescence Detection Kit for HRP (#20-500-500, Sartorius), and imaged with an Alliance Q9 Advanced (UVITec). Where required, membranes were stripped with mild stripping buffer consisting of 0.2 M glycine, 3.47 mM SDS, 1% Tween 20, pH 2.2, blocked for 1 hour with TBS-T+3% BSA and re-probed with primary antibodies.
Therefore, we conclude that NZ-65 and NZ-66 are novel ULKTAC molecules that initiate the recruitment of ULK1 to mitochondria, leading to an increase in local ULK1 activity, the formation of an autophagosome and mitophagy.

[2] = tested on: LC3; assay: ATP5a/LC3 co-localisation immunofluorescence in MEF WT
Protocol: as §1
(§2) For TOM20/ULK1 immunofluorescence, cells were seeded in a 384 well PerkinElmer CellCarrier Ultra plate 24 hours prior to treatment with compounds. Cells were treated for 18 hours after which they were fixed with 4% paraformaldehyde (PFA) in phosphate buffered saline (PBS) and blocked with 10% FBS and 0.1% Triton in PBS. Plates were incubated at 4° C. overnight, with 1:400 mouse anti-TOM20 (Santa Cruz, #sc-17764) and 1:400 rabbit anti-ULK1 (Cell Signalling Technologies, #0854). […]

[3] = tested on: LC3; assay: ATP5a/LC3 co-localisation immunofluorescence in MEF ULK1/2-/-; conditions: ULK1/2-/- cells
Protocol: as §1, §2

Structure (SMILES) | degradation of Mfn2 ([1]; co-treatment with CCCP) | degradation of Mfn2 ([1]; compound alone) | co-localisation of ATP5a with LC3 [2] | co-localisation of ATP5a with LC3 [3]
O=C(Nc1cc(C(F)(F)F)cc(C(F)(F)F)c1)N[C@@H](C(=O)Nc1ccc(F)cc1F)c1ccc(OCc2cn(CCOCCOCCNC(=O)C(=O)c3c(-c4ccccc4)[nH]c4ccccc34)nn2)cc1 [NZ-65, (R)-2-(3-(3,5-bis(trifluoromethyl)phenyl)ureido)-N-(2,4-difluorophenyl)-2-(4-((1-(2-(2-(2-(2-oxo-2-(2-phenyl-1H-indol-3-yl)acetamido)ethoxy)ethoxy)ethyl)-1H-1,2,3-triazol-4-yl)methoxy)phenyl) acetamide] | further enhanced by co-treatment with CCCP | degradation of Mfn2 | increase in co-localisation | absent
O=C(Nc1cc(C(F)(F)F)cc(C(F)(F)F)c1)N[C@@H](C(=O)Nc1ccc(F)cc1F)c1ccc(OCc2cn(CCCCCCNC(=O)C(=O)c3c(-c4ccccc4)[nH]c4ccccc34)nn2)cc1 [NZ-66, (R)-2-(3-(3,5-bis(trifluoromethyl)phenyl)ureido)-N-(2,4-difluorophenyl)-2-(4-((1-(6-(2-oxo-2-(2-phenyl-1H-indol-3-yl)acetamido)hexyl)-1H-1,2,3-triazol-4-yl)methoxy)phenyl) acetamide] | further enhanced by co-treatment with CCCP | degradation of Mfn2 | increase in co-localisation | absent
